Laboratory results reported in US9902716B2, “Fluorinated benzofuranyl-pyrimidine derivatives containing a sulfone group” (Bayer Pharma Aktiengesellschaft, priority 2014, dated 2018).

Key:
[1] = test system: MOLM-13 cells; assay: Proliferation assay MOLM-13 (Method 3, Cell Titre-Glo); assay type: cell-based; conditions: Homo sapiens; MOLM-13, 72-hour exposure; read-out: Inhibition of MOLM-13 cell proliferation IC50
Method: Non-adherent MOLM-13 human acute myeloid leukemia cells (DSMZ ACC 554) were seeded at a density of 5,000 cells/well in a 96-well multititer plate in 100 μL of growth medium supplemented 10% fetal calf serum. After 24 hours, cell viability of one plate (zero-point plate) was determined with the Cell Titre-Glo Luminescent Cell Viability Assay (Promega), while 50 μL of test compound containing medium was added to the wells of the other plates (final concentrations in the range of 0.001-10 μM and DMSO controls; the final concentration of the solvent dimethyl sulfoxide was 0.5%). Cell viability was assessed after 72-hour exposure with the Cell Titre-Glo Luminescent Cell Viability Assay (Promega). IC50 values (inhibitory concentration at 50% of maximal effect) were determined by means of a 4 parameter fit on measurement data which were normalized to vehicle (DMSO) treated cells (=100%) and measurement readings taken immediately before compound exposure (=0%).

[2] = test system: A2780 cells; assay: Proliferation assay A2780 (Method 3, crystal violet); assay type: cell-based; conditions: Homo sapiens, 96 h; A2780, 4 days incubation; read-out: Inhibition of A2780 cell proliferation IC50
Method: Cultivated tumour cells (HeLa, human cervical tumour cells, ATCC CCL-2; NCI-H460, human non-small cell lung carcinoma cells, ATCC HTB-177; A2780, human ovarian carcinoma cells, ECACC #93112519; DU 145, hormone-independent human prostate carcinoma cells, ATCC HTB-81; HeLa-MaTu-ADR, multidrug-resistant human cervical carcinoma cells, EPO-GmbH Berlin; Caco-2, human colorectal carcinoma cells, ATCC HTB-37; B16F10, mouse melanoma cells, ATCC CRL-6475) were plated at a density of 5,000 cells/well (DU145, HeLa-MaTu-ADR), 3,000 cells/well (NCI-H460, HeLa), 2,500 cells/well (A2780), 1,500 cells/well (Caco-2), or 1,000 cells/well (B16F10) in a 96-well multititer plate in 200 μL of their respective growth medium supplemented 10% fetal calf serum. […] Cell proliferation was determined by staining the cells with crystal violet: the cells were fixed by adding 20 μl/measuring point of an 11% glutaric aldehyde solution for 15 minutes at room temperature. […] The extinction was determined by photometry at a wavelength of 595 nm. The change of cell number, in percent, was calculated by normalization of the measured values to the extinction values of the zero-point plate (=0%) and the extinction of the untreated (0 μm) cells (=100%). […]

| IC50 [1] [µM] | IC50 [2] [µM] | Compound |
| --- | --- | --- |
| 0.17 | 0.09 | CS(=O)(=O)Cc1cccc(Nc2ncc(F)c(-c3ccc(F)c4ccoc34)n2)c1 [Example 1, 5-Fluoro-4-(4-fluoro-1-benzofuran-7-yl)-N-{3-[(methylsulfonyl)methyl]-phenyl}pyrimidin-2-amine] |
| 0.046 | 0.038 | Cc1cc(CS(C)(=O)=O)cc(Nc2ncc(F)c(-c3ccc(F)c4ccoc34)n2)c1 [Example 4, 5-Fluoro-4-(4-fluoro-1-benzofuran-7-yl)-N-{3-methyl-5-[(methylsulfonyl)methyl]-phenyl}pyrimidin-2-amine] |
